Experimental data taken from publication PMC11822212, “High-throughput screening identifies Aurora kinase B as a critical therapeutic target for Merkel cell carcinoma” (Nature Communications, 2025).
Where two headings read alike, the source gives them in different places.

Columns and labels:
[1] = tested on: VP-MCC cell lines (WAGA, MKL-1, MKL-2); assay: qHTS cell viability, VP-MCC cell lines as a group (mean AUC, VP.MCC.avg); assay type: cell-based, human
MCC26 cells (VN-MCC) = assay: qHTS cell viability (CellTiter-Glo, 72 h; primary and follow-up small molecule screen); assay type: cell-based, human
NIH-3T3 cells = assay: qHTS cell viability (CellTiter-Glo, 72 h; primary screen), control cell line; assay type: cell-based, mouse
[2] = tested on: VN-MCC cell lines (MCC13, MCC26, UISO); assay: qHTS cell viability, VN-MCC cell lines as a group (mean AUC, VN.MCC.avg); assay type: cell-based, human
WAGA cells (VP-MCC) = assay: qHTS cell viability (CellTiter-Glo, 72 h; primary and follow-up small molecule screen); assay type: cell-based, human
HEK293T cells = assay: qHTS cell viability (CellTiter-Glo, 72 h; primary screen), control cell line; assay type: cell-based, human
[3] = tested on: six MCC cell lines and four control cell lines; assay: qHTS cell viability, all 10 cell lines screened; assay type: cell-based
[4] = tested on: MCC cell lines (WAGA, MKL-1, MKL-2, MCC13, MCC26, UISO); assay: qHTS cell viability, all six MCC cell lines as a group (mean AUC, MCC.avg); assay type: cell-based, human
CRL-7250 cells = assay: qHTS cell viability (CellTiter-Glo, 72 h; primary screen), control cell line; assay type: cell-based
MKL-1 cells (VP-MCC) = assay: qHTS cell viability (CellTiter-Glo, 72 h; primary and follow-up small molecule screen); assay type: cell-based, human
MCC13 cells (VN-MCC) = assay: as above; assay type: cell-based, human
[5] = tested on: control cell lines (HACAT, HEK293T, CRL-7250, NIH-3T3); assay: qHTS cell viability, control cell lines as a group (mean AUC, Control.avg); assay type: cell-based
UISO cells (VN-MCC) = assay: qHTS cell viability (CellTiter-Glo, 72 h; primary and follow-up small molecule screen); assay type: cell-based, human
MKL-2 cells (VP-MCC) = assay: as above; assay type: cell-based, human
HACAT cells = assay: qHTS cell viability (CellTiter-Glo, 72 h; primary screen), control cell line; assay type: cell-based, human
[6] = MIPE library, Control AUC minus VP-MCC AUC (therapeutic window), sheet S2E
[7] = MIPE library, mean AUC of VP-MCC cell lines, sheet S2E
[8] = MIPE library, 11-point DRC, sheet S2E
[9] = MIPE library, 11-point DRC, control cell line, sheet S2E
[10] = MIPE library, Control AUC minus VN-MCC AUC (therapeutic window), sheet S2E
[11] = MIPE library, mean AUC of VN-MCC cell lines, sheet S2E
[12] = MIPE library, Control AUC minus MCC AUC (therapeutic window), sheet S2E
[13] = MIPE library, mean AUC of six MCC cell lines, sheet S2E
[14] = MIPE library, mean AUC of control cell lines, sheet S2E

Compound | Control-VP-MCC [1, 6] | VP-MCC_Avg_AUC [1, 7] | MCC26_AUC (MCC26 cells (VN-MCC); [8]) | NIH3T3_AUC (NIH-3T3 cells; [9]) | Control-VN-MCC [2, 10] | VN-MCC_Avg_AUC [2, 11] | WAGA_AUC (WAGA cells (VP-MCC); [8]) | HEK293T_AUC (HEK293T cells; [9]) | Control-MCC [3, 12] | MCC_Avg_AUC [4, 13] | CRL7250_AUC (CRL-7250 cells; [9]) | MKL1_AUC (MKL-1 cells (VP-MCC); [8]) | MCC13_AUC (MCC13 cells (VN-MCC); [8]) | Control_Avg_AUC [5, 14] | UISO_AUC (UISO cells (VN-MCC); [8]) | MKL2_AUC (MKL-2 cells (VP-MCC); [8]) | HACAT_AUC (HACAT cells; [9]) | further results
CCCN(CCC)CCc1c[nH]c2ccccc12.Cl [N,N-Dipropyltryptamine hydrochloride] | – | – | – | – | – | – | – | – | – | – | – | – | – | – | – | – | – | Control-VP-MCC [1]: 69.8085; VP-MCC_Avg_AUC [1]: 409.358; MCC26_AUC (MCC26 cells (VN-MCC)): 415.779; NIH3T3_AUC (NIH-3T3 cells): 481.316; Control-VN-MCC [2]: 47.3665; VN-MCC_Avg_AUC [2]: 431.8; WAGA_AUC (WAGA cells (VP-MCC)): 434.773; HEK293T_AUC (HEK293T cells): 447.306; Control-MCC [3]: 58.5875; MCC_Avg_AUC [4]: 420.579; CRL7250_AUC (CRL-7250 cells): 497.853; MKL1_AUC (MKL-1 cells (VP-MCC)): 391.099; MCC13_AUC (MCC13 cells (VN-MCC)): 455.096; Control_Avg_AUC [5]: 479.166; UISO_AUC (UISO cells (VN-MCC)): 424.523; MKL2_AUC (MKL-2 cells (VP-MCC)): 402.2; HACAT_AUC (HACAT cells): 490.19
CC(=O)SCC(Cc1ccccc1)C(=O)NCC(=O)OCc1ccccc1 (stereo not shown) [Racecadotril] | 182.226 | 289.144 | 488.688 | 475.653 | 11.6784 | 459.691 | 280.978 | 456.066 | 96.952 | 374.417 | 474.01 | 303.479 | 461.58 | 471.369 | 428.805 | 282.974 | 479.748 | MCC26_AUC (MCC26 cells (VN-MCC); area under the dose-response curve, MCC26 cells, AUC<450 = reduced viability): 492.456; NIH3T3_AUC (NIH-3T3 cells; area under the dose-response curve, NIH3T3 control cells, AUC<450 = reduced viability): 480.677; WAGA_AUC (WAGA cells (VP-MCC); area under the dose-response curve, WAGA cells, AUC<450 = reduced viability): 389.872; HEK293T_AUC (HEK293T cells; area under the dose-response curve, HEK293T control cells, AUC<450 = reduced viability): 472.387; CRL7250_AUC (CRL-7250 cells; area under the dose-response curve, CRL7250 control cells, AUC<450 = reduced viability): 474.054; MKL1_AUC (MKL-1 cells (VP-MCC); area under the dose-response curve, MKL-1 cells, AUC<450 = reduced viability): 393.26; MCC13_AUC (MCC13 cells (VN-MCC); area under the dose-response curve, MCC13 cells, AUC<450 = reduced viability): 485.077; UISO_AUC (UISO cells (VN-MCC); area under the dose-response curve, UISO cells, AUC<450 = reduced viability): 451.995; MKL2_AUC (MKL-2 cells (VP-MCC); area under the dose-response curve, MKL-2 cells, AUC<450 = reduced viability): 385.069; HACAT_AUC (HACAT cells; area under the dose-response curve, HACAT control cells, AUC<450 = reduced viability): 454.884
CCNC(=O)Nc1ccc2ncc(Nc3ccc(C)cc3)nc2n1 [D-106669] | 60.3261 | 410.488 | 446.547 | 467.724 | 41.7531 | 429.061 | 400.326 | 479.506 | 51.0396 | 419.775 | 461.458 | 400.108 | 484.886 | 470.814 | 355.75 | 431.031 | 474.569 | –
